Test results taken from US20020147230A1, “Aminal Diones as potassium channel openers” (priority 2001, published 2002).

How the values were obtained:
[1] = test system: tissue strips obtained from Landrace pig bladders; experiment: Functional potassium channel opening activity in isolated bladder strips (field-stimulated twitch); settings: for EC50 / Emax: Sus scrofa; for EC50: amount causing 50% of the agent's maximal response, read-out: ED50 (the source's name); for Emax: maximal efficacy relative to P1075, field stimulation 0.05 Hz
Protocol: Compounds were evaluated for functional potassium channel opening activity using tissue strips obtained from Landrace pig bladders.
Landrace pig bladders were obtained from female Landrace pigs of 930 kg. Landrace pigs were euthanized with an intraperitoneal injection of pentobarbital solution, Somlethal®, J. A. Webster Inc., Sterling Mass. The entire bladder was removed and immediately placed into Krebs Ringer bicarbonate solution (composition, mM: NaCl, 120; NaHCO3, 20; dextrose, 11; KCl, 4.7; CaCl2, 2.5; MgSO4, 1.5; KH2PO4, 1.2; K2EDTA, 0.01, equilibrated with 5% CO2/95% O2pH 7.4 at 37° C.). Propranolol (0.004 mM) was included in all of the assays to block β-adrenoceptors. The trigonal and dome portions were discarded. Strips 3-5 mm wide and 20 mm long were prepared from the remaining tissue cut in a circular fashion. The mucosal layer was removed. One end was fixed to a stationary glass rod and the other to a Grass FT03 transducer at a basal preload of 1.0 gram. Two parallel platinum electrodes were included in the stationary glass rod to provide field stimulation of 0.05 Hz, 0.5 milli-seconds at 20 volts. This low frequency stimulation produced a stable twitch response of 100-500 centigrams. Tissues were allowed to equilibrate for at least 60 minutes and primed with 80 mM KCl. A control concentration response curve (cumulative) was generated for each tissue using the potassium channel opener P1075 as the control agonist. […] After a 60 minute rinsing period, a concentration response curve (cumulative) was generated for the test agonist in the same fashion as that used for the control agonist P1075. The maximal efficacy of each compound (expressed as % relative to P1075) is reported. The amount of agent necessary to cause 50% of the agent's maximal response (ED50) was calculated using “ALLFIT” (DeLean et al., Am. J. Physiol., 235, E97 (1980)), hereby incorporated by reference. Agonist potencies were also expressed as an index relative to P1075. The index was calculated by dividing the ED50 for P1075 by the ED50 for the test agonist in a given tissue. Each tissue was used for only one test agonist, and the indices obtained from each tissue were averaged to provide an average index of potency.

[2] = test system: primary cultured guinea-pig urinary bladder (GPB) cells; experiment: Membrane hyperpolarization (MHP) assay, DiBAC(4)3 / FLIPR; format: cell-based; settings: Cavia porcellus; membrane hyperpolarization in guinea-pig bladder cells
Protocol: Compounds were evaluated for potassium channel opening activity using primary cultured guinea-pig urinary bladder (GPB) cells.
For the preparation of urinary bladder smooth muscle cells, urinary bladders were removed from male guinea-pigs (Hartley, Charles River, Wilmington, Mass.) weighing 300-400 g and placed in ice-cold Ca^2+-free Krebs solution (composition, mM: KCl, 2.7; KH2PO4, 1.5; NaCl, 75; Na2HPO4, 9.6; Na2HPO4.7H2O, 8; MgSO4, 2; glucose, 5; HEPES, 10; pH 7.4). Cells were isolated by enzymatic dissociation as previously described with minor modifications (Klockner and Isenberg, Pflugers Arch. (1985), 405, 329-339), hereby incorporated by reference. The bladder was cut into small sections and incubated in 5 mL of the Kreb's solution containing 1 mg/mL collagenase (Sigma, St. Louis, Mont.) and 0.2 mg/mL pronase (Calbiochem, La Jolla, Calif.) with continuous stirring in a cell incubator for 30 minutes. The mixture was then centrifuged at 1300× g for 5 minutes, and the pellet resuspended in Dulbecco's PBS (GIBCO, Gaithersburg, Md.) and recentrifuged to remove residual enzyme. The cell pellet was resuspended in 5 mL growth media (composition: Dulbecco's modified Eagle's medium supplemented with 10% fetal bovine serum, 100 units/mL penicillin, 100 units/mL streptomycin and […] amphotericin B) and further dissociated by pipetting the suspension through a flame-polished Pasteur pipette and passing it through a polypropylene mesh membrane (Spectrum, Houston, Tex.). The cell density was adjusted to 100,000 cells/mL by resuspension in growth media. Cells were plated in clear-bottomed black 96-well plates (Packard) for membrane potential studies at a density of 20,000 cells/well and maintained in a cell incubator with 90% air:10% CO2 until confluent. Cells were confirmed to be of smooth muscle type by cytoskeletal staining using a monoclonal mouse anti human-α-smooth muscle actin (Biomeda, Foster City, Calif.).
Functional activity at potassium channels was measured by evaluating changes in membrane potential using the bis-oxonol dye DiBAC(4)3 (Molecular Probes) in a 96-well cell-based kinetic assay system, Fluorescent Imaging Plate Reader (FLIPR) (K. S. Schroeder et al., J. Biomed. Screen., v. 1 pp. 7581 (1996)), hereby incorporated by reference. DiBAC(4)3 is an anionic potentiometric probe which partitions between cells and extracellular solution in a membrane potential-dependent manner. With increasing membrane potential (for example, K^+ depolarization), the probe further partitions into the cell; this is measured as an increase in fluorescence due to dye interaction with intracellular lipids and proteins. Conversely, decreasing membrane potential (hyperpolarization by potassium channel openers) evokes a decrease in fluorescence.
Confluent guinea-pig urinary bladder cells cultured in black clear-bottomed 96-well plates were rinsed twice with […] assay buffer (composition, mM: HEPES, 20; NaCl, 120; KCl, 2; CaCl2, 2; MgCl2, 1; glucose, 5; pH 7.4 at 25° C.) containing 5 μM DiBAC(4)3 and incubated with […] of the buffer in a cell incubator for 30 minutes at 37° C. to ensure dye distribution across the membrane. After recording the baseline fluorescence for 5 minutes, the reference or test compounds, prepared at 10 times the concentration in the assay buffer, were added directly to the wells. Changes in fluorescence were monitored for an additional 25 minutes. Hyperpolarization responses were corrected for any background noise and were normalized to the response observed with 10 μM of the reference compound P1075 (assigned as 100%), a potent opener of smooth muscle KATP channels (Quast et al., Mol. Pharmacol., v. 43 pp. 474-481 (1993)).
Routinely, five concentrations of P1075 or test compounds (log or half-log dilutions) were evaluated and the maximal steady-state hyperpolarization values (expressed as % relative to P1075) plotted as a function of concentration. […]

Row | SMILES | EC50 ([1]; Landrace pig bladder strips) [nM] | EC50 [2] [nM] | Emax ([1]; Landrace pig bladder strips) [%] | Index ([1]; ED50 for P1075 divided by ED50 for the test agonist in a given tissue, averaged) | effect on stimulated twitch / stimulated contractions of the bladder ([1]; Landrace pig bladder strips, P1075 over 10^−9 to 10^−5 M)
1 | Cc1ccc(C(=O)NC(Nc2c(Nc3cccnc3)c(=O)c2=O)C(C)(C)C)cc1 (centres unmarked) [Example 1, N-(1-{[3,4-dioxo-2-(3-pyridinylamino)-1-cyclobuten-1-yl]amino}-2,2-dimethylpropyl)-4-methylbenzamide] | 19000 | 150 | 54 |  | 
2 | CC(C)(C)C(NC(=O)c1ccc(I)cc1)Nc1c(Nc2cccnc2)c(=O)c1=O (centres unmarked) [Example 3, N-(1-{[3,4-dioxo-2-(3-pyridinylamino)-1-cyclobuten-1-yl]amino}-2,2-dimethylpropyl)-4-iodobenzamide] | 2200 |  | 73 |  | 
3 | CC(C)(C)C(NC(=O)c1cccc(Cl)c1)Nc1c(Nc2cccnc2)c(=O)c1=O (centres unmarked) [Example 5, 3-chloro-N-(1-{[3,4-dioxo-2-(3-pyridinylamino)-1-cyclobuten-1-yl]amino}-2,2-dimethylpropyl)benzamide] | 380 |  | 98 |  | 
4 | CC(C)(C)C(NC(=O)c1cc(Cl)cc(Cl)c1)Nc1c(Nc2cccnc2)c(=O)c1=O (centres unmarked) [Example 12, 3,5-dichloro-N-(1-{[3,4-dioxo-2-(3-pyridinylamino)-1-cyclobuten-1-yl]amino}-2,2-dimethylpropyl)benzamide] | 2600 |  | 78 |  | 
5 | COc1cc(OC)cc(C(=O)NC(Nc2c(Nc3cccnc3)c(=O)c2=O)C(C)(C)C)c1 (centres unmarked) [Example 13, N-(1-{[3,4-dioxo-2-(3-pyridinylamino)-1-cyclobuten-1-yl]amino}-2,2-dimethylpropyl)-3,5-dimethoxybenzamide] | 370 |  | 75 |  | 
6 | CC(C)(C)C(NC(=O)c1cc(F)cc(F)c1)Nc1c(Nc2cccnc2)c(=O)c1=O (centres unmarked) [Example 16, N-(-1-{[3,4-dioxo-2-(3-pyridinylamino) 1-cyclobuten-1-yl]amino}-2,2-dimethylpropyl)-3,5-difluorobenzamide] | 3800 |  | 94 |  | 
7 | CCC(CC)(CCC#N)C(NC(=O)c1ccc(Cl)cc1)Nc1c(Nc2cccnc2)c(=O)c1=O (centres unmarked) [Example 19, 4-chloro-N-(4-cyano-1-{[3,4-dioxo-2-(3-pyridinylamino)-1-cyclobuten-1-yl]amino}-2,2-diethylbutyl)benzamide] |  | > 10000 |  |  | 
8 | C=CCOCC(CC)(COCC=C)C(NC(=O)c1ccc(Cl)cc1)Nc1c(Nc2cccnc2)c(=O)c1=O (centres unmarked) [Example 20, N-(2,2-bis[(allyloxy)methyl]-1-{[3,4-dioxo-2-(3-pyridinylamino)-1-cyclobuten-1-yl]amino}butyl)-4-chlorobenzamide] |  | 580 |  |  | 
9 | O=C(NC(Nc1c(Nc2cccnc2)c(=O)c1=O)C(F)(F)C(F)(F)F)c1cccc(Cl)c1 (centres unmarked) [Example 26, 3-chloro-N-(1-{[3,4-dioxo-2-(3-pyridinylamino)-1-cyclobuten-1-yl]amino}-2,2,3,3,3-pentafluoropropyl)benzamide] | 420 |  | 64 |  | 
10 | CC(C)(C)C(NC(=O)c1ccc(Cl)cc1)Nc1c(Nc2cccnc2Cl)c(=O)c1=O (centres unmarked) [Example 29, 4-chloro-N-[1-({2-[(2-chloro-3-pyridinyl)amino]-3,4-dioxo-1-cyclobuten-1-yl}amino)-2,2-dimethylpropyl]benzamide] | 3000 |  | 81 |  | 
11 | CC(C)(Cc1ccccc1)C(NC(=O)c1ccc(Cl)cc1)Nc1c(Nc2cccnc2Cl)c(=O)c1=O (centres unmarked) [Example 31, 4-chloro-N-[1-({2-[(2-chloro-3-pyridinyl)amino]-3,4-dioxo-1-cyclobuten-1-yl}amino)-2,2-dimethyl-3-phenylpropyl]benzamide] | 2900 |  | 76 | 0.039 | 
12 | CC(C)(C)C(NC(=O)CCc1ccccc1)Nc1c(Nc2cccnc2)c(=O)c1=O (centres unmarked) [Example 36, N-(1-{[3,4-dioxo-2-(3-pyridinylamino)-1-cyclobuten-1-yl]amino}-2,2-dimethylpropyl)-3-phenylpropanamide] | 970 |  | 99 |  | 
13 | CCC(C)(C)N=C(NC#N)Nc1cccnc1 [Example P1075, reference compound] |  |  |  |  | completely eliminated the stimulated twitch

The next lines start with results.

Row | EC50 ([1]; Landrace pig bladder strips) [nM] | EC50 [2] [nM] | SMILES | Emax ([1]; Landrace pig bladder strips) [%] | Index ([1]; ED50 for P1075 divided by ED50 for the test agonist in a given tissue, averaged) | effect on stimulated twitch / stimulated contractions of the bladder ([1]; Landrace pig bladder strips, P1075 over 10^−9 to 10^−5 M)
14 | 6900 | 160 | CC(C)(C)C(NC(=O)c1ccc(Cl)cc1)Nc1c(Nc2cccnc2)c(=O)c1=O (centres unmarked) [Example 2, 4-chloro-N-(1-{[3,4-dioxo-2-(3-pyridinylamino)-1-cyclobuten-1-yl]amino}-2,2-dimethylpropyl)benzamide] | 79 |  | 
15 | 1000 |  | Cc1cccc(C(=O)NC(Nc2c(Nc3cccnc3)c(=O)c2=O)C(C)(C)C)c1 (centres unmarked) [Example 6, N-(1-{[3,4-dioxo-2-(3-pyridinylamino)-1-cyclobuten-1-yl]amino}-2,2-dimethylpropyl)-3-methylbenzamide] | 100 |  | 
16 | 8400 |  | CC(C)(C)C(NC(=O)c1cccc(F)c1)Nc1c(Nc2cccnc2)c(=O)c1=O (centres unmarked) [Example 7, N-(1-{[3,4-dioxo-2-(3-pyridinylamino)-1-cyclobuten-1-yl]amino}-2,2-dimethylpropyl)-3-fluorobenzamide] | 89 |  | 
17 | 2800 |  | CC(C)(C)C(NC(=O)c1cccc(I)c1)Nc1c(Nc2cccnc2)c(=O)c1=O (centres unmarked) [Example 8, N-(1-{[3,4-dioxo-2-(3-pyridinylamino)-1-cyclobuten-1-yl]amino}-2,2-dimethylpropyl)-3-iodobenzamide] | 84 |  | 
18 | 4000 |  | CCC(CC)C(NC(=O)c1ccc(Cl)cc1)Nc1c(Nc2cccnc2)c(=O)c1=O (centres unmarked) [Example 21, 4-chloro-N-(1-{[3,4-dioxo-2-(3-pyridinylamino)-1-cyclobuten-1-yl]amino}-2-ethylbutyl)benzamide] | 68 |  | 
19 | 1300 |  | Cc1cccc(C(=O)NC(Nc2c(Nc3cccnc3Cl)c(=O)c2=O)C(C)(C)C)c1 (centres unmarked) [Example 32, N-[1-({2-[(2-chloro-3-pyridinyl)amino]-3,4-dioxo-1-cyclobuten-1-yl}amino)-2,2-dimethylpropyl]-3-methylbenzamide] | 99 |  | 
